The text below walks through data of a melting point compilation (Tetko et al.; mined from patent text by program, amines drawn as free bases though some values may be those of a salt).

Structures are written as SMILES. Where only a bound is given, the exact number is not on record here.

The compound `COc1nccc2c1C(C)(O)c1c([nH]c3ccncc13)C2(C)O` (stereo not drawn) had a melting point of over 250 °C.

The compound `CC(C=O)Oc1ccc(Cl)cc1Cl` (stereo not drawn) gave a melting point of 87 to 88 °C.

For the compound `NC(=O)c1cc(O)c(O)c([N+](=O)[O-])c1`, the melting point is 235 to 236 °C.

Compound `COC(=O)O[C@@H]1[C@@H](c2ccccc2)Nc2c(ccn3c(C)c(C)nc23)[C@H]1OC` had a melting point of 90 to 91 °C.

As to `CCn1c(=O)c2c(nc(C=Cc3cc(OC)ccc3S(=O)(=O)O)n2C)n(CC)c1=O`, the melting point was in the range of 209 to 210 °C.

Consider `Cc1ccc(CN(O)C(N)=O)o1`, for which the melting point was 105 °C.

Turning to `Cc1nsc(OCC(F)(F)F)c1S(=O)(=O)NC(C)(C)C`, the melting point is 87 to 90 °C.

`O=C1CCC(c2ccc(Br)cc2)CC1` showed a melting point of 59.4 to 61.4 °C.

Regarding `Cc1ccccc1NC(=O)c1ccc(C(=O)N2Cc3cccn3Cc3ccccc32)cc1`, the melting point was in the range of 228 to 231 °C.

Take `CCC(Oc1ccc(C(C)(C)CC(C)(C)C)cc1)C(=O)Nc1ccc(Cl)c(Nc2cc(=O)n(-c3c(Cl)cc(Cl)cc3Cl)[nH]2)c1` (stereo not drawn): the melting point fell in the range of 163 to 165 °C.

As to `O=C(Nc1ccc(F)cc1F)C1c2ccccc2COc2ccc(Br)cc21` (stereo not drawn), the melting point was in the range of 189 to 191 °C.

`CC(=O)NCC1CN(c2ccc(N3CCC(n4ccnn4)C(F)C3)c(F)c2)C(=O)O1` (stereo not drawn) gave a melting point of 158 to 160 °C.

In turn, `COC(=O)c1ccc(-c2cc3c(Nc4cccc(Cl)c4)ncnc3[nH]2)cc1` had a melting point of over 300 °C.

`COCCN(C)Cc1ccnc2c(NC(=O)c3c(Cl)cccc3Cl)cccc12`: the melting point lay within 128 to 134 °C.

In turn, `CCCCCCCCCCCCCCCCCCOC(=O)C(N)Cc1ccc(N)cc1` (stereo not drawn) gave a melting point of 54 to 56 °C.

In turn, `COc1c(Cl)cc(C(=O)Nc2ccc(F)cc2)c(Nc2ccccc2)c1Cl` gave a melting point of 220 °C.

`C[C@@H](n1ccn(-c2ccc(OC(F)(F)C(F)F)cc2)c1=O)[C@@]1(c2ccc(F)cc2F)CO1` gave a melting point of 117 to 118 °C.

`O=C(O)CNC(=O)C(S)Cc1ccccc1` (stereo not drawn) returned a melting point of 55 to 58 °C.

For `CCOC(=O)c1csc(Nc2ccc(F)cc2)n1`, the melting point lay in the range of 133 to 136 °C.

`COc1cccc(OC)c1C=CC(=O)c1c(OC)cccc1OC` gave a melting point of 179 to 180 °C.

As for `CCOC(Cl)(Cl)C1OC(=C(Cl)Cl)c2cc(C(=O)O)ccc2O1` (stereo not drawn), the melting point is 121 to 122 °C.

Turning to `O=C(CCc1ccncc1)Nc1cccc(-c2ccnc3c(C(=O)c4cccs4)cnn23)c1`, the melting point lay in the range of 176 to 181 °C.

Take `CC(C(=O)O)C1CCCCC1` (stereo not drawn): the melting point was in the range of 63 to 64 °C.

For `CC1(C)CC(=O)c2ccc(Cl)cc2O1`, the melting point was in the range of 63 to 66 °C.

In the case of `O=c1c2[nH]c(Cl)nc2n(CC2CC2)c(=O)n1CC1CC1`, the melting point is 220 °C.

The compound `O=C1c2cc(Sc3ccccc3)c(Sc3ccccc3)cc2C(=O)c2c1c(O)c1cc(Sc3ccccc3)c(Sc3ccccc3)cc1c2O` showed a melting point of over 260 °C.

`N#Cc1ccc(C2(Cc3ccccc3)C(=O)N(CC3CC3)Cc3cncn32)cc1` (stereo not drawn) had a melting point of 156 to 158 °C.

`Cc1ccc(C)n1-c1ccc2c(c1)ncn2-c1cccc(-n2ccnc2)c1` displayed a melting point of 141 to 142 °C.

For the compound `O=c1cc2c(n[nH]1)CCc1cc(O)ccc1-2`, the melting point was over 300 °C.

Regarding `Cc1cc(=O)c(C(=O)Nc2ccccc2)c(-c2ccccc2)o1`, the melting point lay in the range of 222 to 226 °C.

In turn, `C=CCNc1nc(C)c(C(=O)c2ccc(N)c([N+](=O)[O-])c2)s1` returned a melting point of 250 to 252 °C.

In turn, `COc1ccc(-n2c(C)ccc2-c2ccc(S(N)(=O)=O)cc2)cc1` registered a melting point of 196 to 197 °C.

The compound `COC(=O)C1=C(C)NC(C)=C(C(=O)OCCCC#N)C1c1ccccc1[N+](=O)[O-]` (stereo not drawn) yielded a melting point of 48 to 51 °C.

`CC(C)(C)C1=CC(=S)N=N1` registered a melting point of 147 to 148 °C.

As for `COc1ccc(C#Cc2ccc3c(Nc4cc(OC)c(Cl)cc4Cl)c(C#N)cnc3c2)cc1`, the melting point fell in the range of 225 to 226 °C.

`Fc1cccc(F)c1C1=NC(c2ccc(OCc3ccc(Cl)cc3Cl)cc2)CO1` (stereo not drawn) gave a melting point of 104 °C.

Compound `CCOC(=O)Cc1nc2cc(C)ccc2o1` registered a melting point of 68 to 69 °C.

Consider `CCOC(=O)c1cc2cc(OCCOC)cc([N+](=O)[O-])c2[nH]1`, for which the melting point was in the range of 90 to 91 °C.

In turn, `Cc1ccc(CNc2c3c(nc4ccccc24)CCCC3O)cc1` (stereo not drawn) registered a melting point of 176 to 178 °C.

As to `CCCC/C(=C\C=C\C(=O)O)c1ccc(OC)cc1`, the melting point is 138 to 140 °C.

As to `Cc1cccc2c1N(C(=O)OC(C)(C)C)CC(=O)N2`, the melting point was 175 to 177 °C.

As for `O=C1C(=Cc2ccncc2)COc2ccccc21`, the melting point turned out to be 132 °C.

`COc1ccc(S(=O)(=O)N=[N+]=[N-])cc1` returned a melting point of 48 to 50 °C.

Turning to `COC(=O)C(=C1SC=CS1)S(=O)(=O)C(C)C`, the melting point lay within 141 to 142 °C.

`COc1cccc(CC(=O)O)c1OCCCc1cn(-c2ccc(C(F)(F)F)cn2)nc1C(C)C`: the melting point fell in the range of 142 to 143 °C.

`CN(C)C=Nc1ccc(-c2ccc(C(F)(F)F)cc2)cn1` showed a melting point of 154 °C.

In turn, `CC(C)COC(=O)Nc1cccc(-c2ccnc3c(Br)cnn23)c1` displayed a melting point of 90 to 92 °C.

In turn, `CCCn1c(CCOC)nc2c(N)nc3cc(OC4CCN(C(=O)C(C)C)CC4)ccc3c21` gave a melting point of 165 to 166 °C.

On to `O=c1c(Cl)c(-c2ccc3c(ccn3[C@H]3CC[C@H](O)CC3)c2)ccn1CC1CC1`, for which the melting point came out at 209 °C.

Compound `CS(=O)(=O)c1ccc(C(CC2CCCC2)C(=O)O)cc1F` (stereo not drawn) returned a melting point of 115 to 117 °C.

For the compound `CC(=O)c1ccc(-c2cccnc2)s1`, the melting point was 104 to 105 °C.

As to `CCC(C(=O)Nc1ccc2cc[nH]c2c1)c1ccccc1` (stereo not drawn), the melting point was in the range of 143 to 144 °C.

In the case of `Cc1cccc(C)c1OC(=O)[C@H](C)[C@@H](O)C(C)C`, the melting point fell in the range of 58.5 to 59.5 °C.

As to `Cn1cc(C2=C(c3cn(CCO)c4ccccc34)C(=O)NC2=O)c2ccccc21`, the melting point lay within 250 to 252 °C.

Regarding `COc1ccc(/C=C/C(=O)c2ccccc2C(=O)O)cc1-c1cccs1`, the melting point lay within 79 to 81 °C.

With `Cc1cc(-c2cc(C(F)(F)F)n3ncc(-c4ccnc(CO)c4)c3n2)ccc1Cl`, the melting point came to 220 °C.

In the case of `CC(=O)Nc1nc(CCc2ccc(NC(=NC(=O)OC(C)(C)C)NC(=O)OC(C)(C)C)cc2)c(C(=O)O)s1`, the melting point is 222 to 223 °C.

Take `Cn1nc(-c2c(Cl)cccc2Cl)nc1-c1sc(Br)c(Cl)c1Cl`: the melting point is 197 to 199 °C.

Take `Oc1ccc2c(c1)OCC(c1ccc(F)cc1)C2c1ccc(OCCN2CCCC2)cc1` (stereo not drawn): the melting point is 164 to 167 °C.

Regarding `CC(C)n1c2ccccc2c2cc(NC(=O)c3ccccc3Cl)ccc21`, the melting point was 195 °C.

On to `CC(=O)N(C(C)=O)c1cc2c(cc1Cl)C(=O)C1(CCOC1=O)O2` (stereo not drawn), for which the melting point lay within 181 to 185 °C.

`CCOC(=O)c1cccc2c(=O)cc(-c3cccc(OCc4ccc5ccccc5n4)c3)oc12` registered a melting point of over 300 °C.

For `COCCOc1cc(N(C)S(=O)(=O)c2ccccn2)c2[nH]c(C3=NCC(CC(=O)N(C)CCO)S3)cc2c1` (stereo not drawn), the melting point was in the range of 94 to 96 °C.

Regarding `Cc1c(F)cccc1Cc1c(-c2ccccc2)c2ccccn2c1C(=O)N1CCN(C(=O)OC(C)(C)C)[C@@H](CCO)C1`, the melting point was determined as 85 °C.

Compound `COc1ccc(C(=O)N2c3ccccc3[C@H](N(C)c3ccccc3)C[C@@H]2C)cc1OC` (relative stereo) came in with a melting point of 180 to 181 °C.

In turn, `CC1Sc2c(C(=O)O)c(=O)c3cc(F)c(N4CCOCC4)cc3n21` (stereo not drawn) had a melting point of 192 to 198 °C.

Take `O=C(Cc1ncccn1)c1ccc(F)cc1F`: the melting point is 86 to 88 °C.

For `O=[N+]([O-])c1ccc(CCc2nccs2)cc1`, the melting point was in the range of 92 to 93 °C.

`CC(=O)C1=C(O)C(=C(C)Nc2ccc(F)cc2)C(=O)OC1=O` yielded a melting point of 199 to 201 °C.

`CCOC(=O)Cc1ccc(-c2nc(COc3ccc(COc4nn(-c5ccccc5)cc4/C=C/c4coc(C(C)C)n4)cc3OC)c(C)o2)cc1` gave a melting point of 106 to 108 °C.

Compound `CC(C)NC(=O)c1nc(-c2cccc(F)c2)c(-c2ccc(=O)n(C(C)C)n2)s1` registered a melting point of 104 to 106 °C.

`OCCNCC(O)c1ccccc1` (stereo not drawn): the melting point was 96 to 98 °C.

For `CCOC(=O)C(=O)CCc1ccc(OC)c(OC)c1`, the melting point lay in the range of 85 to 87 °C.

Regarding `N#Cc1cc(C#N)c(SC2SCC(O)C(O)C2O)c(C#N)c1` (stereo not drawn), the melting point was in the range of 86 to 96 °C.

`CCCCC(=N)NC(=O)Nc1ccc(C)cc1` gave a melting point of 159 to 160 °C.

Regarding `CS(=O)(=O)NNc1ccnc2c(NC(=O)c3c(Cl)cccc3Cl)cccc12`, the melting point lay within 156 to 164 °C.

`CCOC(=O)c1c(C(F)(F)F)nc(C(F)F)c(C(=O)OC)c1NC(C)C` showed a melting point of 53 to 55 °C.

`CC(=O)NC[C@H]1CN(c2cc(F)c(N3CCN(C(=O)COCc4ccccc4)CC3)c(F)c2)C(=O)O1` gave a melting point of 172 to 173 °C.

`C[Si](C)(C)C#Cc1cccc2ccccc12` displayed a melting point of 41 to 43 °C.

With `CC1=NN(c2ccc(C(=O)O)cc2)C(=O)C1=CNc1ccccc1C(C)C`, the melting point is 270 °C.

In the case of `COC(=O)CCNC(=O)c1ccc2c(c1)nc(-c1ccc(C#N)cc1)n2CCC(c1ccccc1)c1ccccc1`, the melting point lay within 157 to 159 °C.

Take `CN(C)C(=O)C1CCC2C(=O)N(c3ccccc3)C(=O)N12` (stereo not drawn): the melting point is 172 to 174 °C.

Compound `COc1ccc2cc(CN(C)C(=O)c3cn(C)c4ccccc34)ccc2c1Br` showed a melting point of 168 to 169 °C.

Compound `CCCCN1C(=O)CCC(C)(C)c2cc(C(=O)Nc3ccc(C(=O)O)cc3)ccc21` registered a melting point of 269 °C.

Compound `COCOc1cc(OCOC)c(C(=O)C=Cc2cc(OC)c(OCOC)c(OC)c2)c(O)c1CC=C(C)C` yielded a melting point of 91.2 to 92 °C.

The compound `CC1=C(C(=O)CCl)C2(C)CCC3C(CC=C4CC(O)CCC43C)C2C1` (stereo not drawn) registered a melting point of 170 to 172 °C.

Take `COc1ccc2nccc(NC(=O)N3CCN(CCc4cnc5ccccc5n4)CC3)c2n1`: the melting point was 138 to 140 °C.

Turning to `O=C(NNS(=O)(=O)c1ccccc1)c1ccc(I)cc1`, the melting point fell in the range of 193 to 195 °C.
